From patent publication US11124490B2, “Autotaxin inhibitors” (UNIVERSITY OF TENNESSEE RESEARCH FOUNDATION, priority 2016, dated 2021)

Tests used:
human recombinant ATX [1] = molecular target: T1, human recombinant ATX (Homo sapiens (Human), UniProt Q13822); experiment: ATX inhibition, hydrolysis of FRET substrate FS-3; format: biochemical; details: for IC50: 1 μM FS-3, 4 nM human recombinant ATX, 1 hour time point, read-out: IC50 (nM ± SD) vs FS-3
Description: (§1) ATX Generation: Human recombinant ATX was expressed as published previously, using Sf9 Spodoptera frugiperda ovary cells (Invitrogen, Carlsbad, Calif.).^13 Suspension cells were grown to a 1 liter quantity at a concentration of 1×10^6 cells/ml in Sf-900 III serum-free medium (Invitrogen) supplemented with 50 U/ml penicillin and 50 μg/ml streptomycin at 27° C. with agitation. Cells were then infected with high-titer baculovirus generated via Bac-to-Bac Baculovirus Expression System (Invitrogen) using the pCMV5 mammalian expression vector containing the C-terminal FLAG-tagged human ATX sequence (a generous gift from Dr. Junken Aoko, ohoku University, Aoba-ku, Sendai, Japan) subcloned into the pFastBacl transfer vector. […] Resultant ATX was then concentrated via centrifugation in Amicon Ultra 30,000 molecular weight cut off filter units (Millipore, Billerica, Mass.) and subsequent buffer exchange into storage buffer comprised of 50 mM Tris, pH 7.4 with 20% (v/v) ethylene glycol. Protein was held at −80° C. for long-term storage.
(§2) ATX Inhibition: ATX activity was assessed via hydrolysis of the synthetic, lipid-like FRET-based substrate FS-3 (Echelon Biosciences, Salt Lake City, Utah) or via hydrolysis of the nucleotide substrate p-nitrophenyl thymidine 5′-monophosphate (pNP-TMP) as described previously.^2 Reaction wells were loaded in 60 μl volumes in triplicate wells of half-area, black-wall 96-well plates in assay buffer consisting of 50 mM Tris, 140 mM NaCl, 5 mM KCl, 1 mM CaCl2, 1 mM MgCl2, […] BSA, pH 8.0. […] Fluorescence was read every 2 minutes for 1 hour at excitation/emission wavelengths of 485/528 nm for FS-3 hydrolysis or 405 nm absorbance for pNP-TMP hydrolysis using a FlexStation 3 microplate reader (Molecular Devices, Sunnyvale, Calif.). Data (relative fluorescence or absorbance) were then recorded as a mean value of the triplicates for each sample versus time. […] In the case of mechanism determination, the linear fluorescence data from time 10 minutes to 30 minutes were then transformed using a carboxyfluorescein standard curve to determine product concentration and plotted separately. Linear trend lines were inserted using Microsoft Excel, the slope of which represent the rates of reaction for each substrate concentration. This reaction rate data for each inhibitor concentration were then plotted against substrate (FS-3) concentration and simultaneously fitted via non-linear regression in the Michaelis-Menten equations for competitive, non-competitive, uncompetitive, and mixed-mode inhibition using GraphPad Prism version 5.0a. Mechanism of inhibition was determined by which curve fit had the best global fit (R^2 value).

human recombinant ATX [2] = molecular target: T1, human recombinant ATX; experiment: ATX inhibition, hydrolysis of nucleotide substrate pNP-TMP; format: biochemical; details: 1 mM pNP-TMP, 4 nM ATX, compound 0 to 1 μM
Description: as §1, §2

| SMILES | IC50 (human recombinant ATX [1]) [nM] | Mechanism (human recombinant ATX [1]; mechanism of inhibition, FS-3 0 to 10 μM, inhibitor 0, 0.5×IC50 or 2×IC50) | pNP-TMP Inhibition (human recombinant ATX [2]) | ATX inhibitory activity (in words) (human recombinant ATX [1]) |
| --- | --- | --- | --- | --- |
| O=C(Nc1cccc(F)c1)c1cc(S(=O)(=O)N2CCOCC2)c(Cl)cc1Cl [Compound 918013, 2,4-dichloro-N-(3-fluorophenyl)-5-(morpholinosulfonyl)benzamide, reference compound] | 117 ± 1.97 | Competitive | None |  |
| CS(=O)(=O)N(C(=O)c1cc(NN2CCOCC2)c(Cl)cc1Cl)c1cc(F)c(F)c(F)c1 [Compound 26a, 2,4-dichloro-N-(methylsulfonyl)-5-(morpholinoamino)-N-(3,4,5-trifluorophenyl)-benzamide] | > 1000 |  | None | inactive |
| O=S(=O)(Nc1cc(F)c(F)c(F)c1)c1cc(S(=O)(=O)N2CCOCC2)c(Cl)cc1Cl [Compound 23, 2,4-dichloro-5-(morpholinosulfonyl)-N-(3,4,5-trifluorophenyl)benzenesulfonamide] | > 1000 |  | None |  |
| O=S(=O)(Nc1cc(S(=O)(=O)N2CCOCC2)c(Cl)cc1Cl)c1cccc(F)c1 [Compound 19] | > 1000 |  | None |  |
| COC(=O)c1c(F)cc(NC(=O)c2cc(S(=O)(=O)N3CCOCC3)c(Cl)cc2Cl)cc1F [Compound 3i, Methyl 4-(2,4-dichloro-5-(morpholinosulfonyl)benzamido)-2,6-difluorobenzoate] | 864 ± 51.9 |  | None |  |
| O=C(Nc1cc(F)c(F)c(F)c1)c1cc(NN2CCOCC2)c(Cl)cc1Cl [Compound 25, 2,4-dichloro-5-(morpholinoamino)-N-(3,4,5-trifluorophenyl)benzamide] | > 1000 |  | None | inactive |
| O=S(=O)(c1cc(CNc2ccc(F)c(F)c2)c(Cl)cc1Cl)N1CCOCC1 [Compound 10, N-(2,4-dichloro-5-(morpholinosulfonyl)benzyl)-3,4-difluoroaniline] |  |  | None | greatly deteriorated |
| COc1cc(NC(=O)c2cc(S(=O)(=O)N3CCOCC3)c(Cl)cc2Cl)cc(OC)c1OC [Compound 3e, 2,4-dichloro-5-(morpholinosulfonyl)-N-(3,4,5-trimethoxyphenyl)benzamide] | > 1000 |  | None | poorly active |
| N#Cc1c(F)cc(NC(=O)c2cc(S(=O)(=O)N3CCOCC3)c(Cl)cc2Cl)cc1F [Compound 3h, 2,4-dichloro-N-(4-cyano-3,5-difluorophenyl)-5-(morpholinosulfonyl)benzamide] | 190 ± 13.1 |  | None |  |
| O=S(=O)(c1cc(N(S(=O)(=O)c2cccc(F)c2)S(=O)(=O)c2cccc(F)c2)c(Cl)cc1Cl)N1CCOCC1 [Compound 20] | > 1000 |  | None |  |
| O=S(=O)(Nc1cccc(F)c1)c1cc(S(=O)(=O)N2CCOCC2)c(Cl)cc1Cl [Compound 22, 2,4-dichloro-N-(3-fluorophenyl)-5-(morpholinosulfonyl)benzenesulfonamide] | > 1000 |  | None |  |
| O=C(Nc1cc(Cl)c(Cl)c(Cl)c1)c1cc(S(=O)(=O)N2CCOCC2)c(Cl)cc1Cl [Compound 3d, 2,4-dichloro-5-(morpholinosulfonyl)-N-(3,4,5-trichlorophenyl)benzamide] | > 1000 |  | None | poorly active |
